# pEC50: −log10 of the molar value.
# System: HBV
# Experiment: HBV inhibition assay in HepG2.2.15 cells (qPCR of extracellular HBV DNA)
# Format: cell-based, Hepatitis B virus
# Details: Hepatitis B virus, HepG2.2.15, 120 h, extracellular HBV DNA by qPCR, five days after compound treatment
# Source text: HepG2.2.15 is a stably-transfected cell line containing the HBV genome. It is derived from the hepatoblastoma cell line Hep G2 (American Type Culture Collection, ATCC® HB-8065™) by the published procedures described in reference: MA Selles et al. Proc. Natl. Acad. Sci. USA 1987, 84, 1005-1009. The cell line was maintained in Dulbecco's modified Eagle's medium and nutrient mixture F-12 (DMEM/F-12, Gibco, Cat.#: 11320-033) supplemented with 10% fetal bovine serum (Gibco, Cat.#:10099-141), 100 U/mL penicillin, 100 μg/mL streptomycin (Gibco, Cat.#:15140-122), and 0.3 mg/mL of G418 Sulfate (Gibco, Cat.#: 10131-027).
# HepG2.2.15 cells were seeded into 96-well plates at a density of 3×10^4 cells per well in culture media of 100 μL DMEM/F-12 supplemented with 2.5% fetal bovine serum, 100 U/mL penicillin, 100 μg/mL streptomycin and cultured overnight at 37° C. The test compounds were serially half-log diluted in DMSO, then diluted 100 times in culture media. 100 μL culture media containing diluted compounds were added into the plates to reach 0.5% final concentration of DMSO in every well. Five days after compound treatment, culture supernatant was collected for further analysis.
# For quantitative PCR detection of extracellular HBV DNA, culture supernatant was processed by 500 μg/mL Proteinase K (Sigma, Cat.#:P2308) digestion at 50° C. for 1 hour. After heat inactivation of the enzyme at 95° C. for 15 minutes, the samples were subjected to HBV DNA quantification by qPCR. The effective compound concentration at which HBV replication was inhibited by 50% (EC50) was determined.
row,SMILES,pEC50
1,"C[C@H]1Cn2ncc(N3CC(N4CCC[C@H]4C(=O)O)CC3=O)c2CN1C(=O)Nc1cc(F)c(F)c(F)c1 (stereo partly drawn) [Example 1, (2S)-1-[1-[(6S)-6-methyl-5-[(3,4,5-trifluorophenyl)carbamoyl]-6,7-dihydro-4H-pyrazolo[1,5-a]pyrazin-3-yl]-5-oxo-pyrrolidin-3-yl]pyrrolidine-2-carboxylic acid]",6.90
2,"C[C@H]1Cn2ncc(N3C(=O)CC(N4CCC[C@H]4C(=O)O)[C@@H]3C)c2CN1C(=O)Nc1cc(F)c(F)c(F)c1 (stereo partly drawn) [Example 2, (2S)-1-[(2S)-2-methyl-1-[(6S)-6-methyl-5-[(3,4,5-trifluorophenyl)carbamoyl]-6,7-dihydro-4H-pyrazolo[1,5-a]pyrazin-3-yl]-5-oxo-pyrrolidin-3-yl]pyrrolidine-2-carboxylic acid]",7.01
3,"C[C@H]1Cn2ncc(N3CC(N(C)CC(=O)O)CC3=O)c2CN1C(=O)Nc1cc(F)c(F)c(F)c1 (stereo partly drawn) [Example 3, 2-[Methyl-[1-[(6S)-6-methyl-5-[(3,4,5-trifluorophenyl)carbamoyl]-6,7-dihydro-4H-pyrazolo[1,5-a]pyrazin-3-yl]-5-oxo-pyrrolidin-3-yl]amino]acetic acid]",6.86
4,"C[C@H]1Cn2ncc(N3C(=O)CC(N4CCC[C@@H]4C(=O)O)[C@@H]3C)c2CN1C(=O)Nc1cc(F)c(F)c(F)c1 (stereo partly drawn) [Example 4, (2R)-1-[(2S)-2-methyl-1-[(6S)-6-methyl-5-[(3,4,5-trifluorophenyl)carbamoyl]-6,7-dihydro-4H-pyrazolo[1,5-a]pyrazin-3-yl]-5-oxo-pyrrolidin-3-yl]pyrrolidine-2-carboxylic acid]",6.98
5,"C[C@H]1Cn2ncc(N3CC(N4CCC(C(=O)O)C4)CC3=O)c2CN1C(=O)Nc1cc(F)c(F)c(F)c1 (stereo partly drawn) [Example 5, 1-[1-[(6S)-6-methyl-5-[(3,4,5-trifluorophenyl)carbamoyl]-6,7-dihydro-4H-pyrazolo[1,5-a]pyrazin-3-yl]-5-oxo-pyrrolidin-3-yl]pyrrolidine-3-carboxylic acid]",6.62
6,"C[C@H]1[C@H](C)n2ncc(N3CC(N4CCC[C@H]4C(=O)O)CC3=O)c2CN1C(=O)Nc1cc(F)c(F)c(F)c1 (stereo partly drawn) [Example 6-1, (2S)-1-[1-[(6S,7S)-6,7-dimethyl-5-[(3,4,5-trifluorophenyl)carbamoyl]-6,7-dihydro-4H-pyrazolo[1,5-a]pyrazin-3-yl]-5-oxo-pyrrolidin-3-yl]pyrrolidine-2-carboxylic acid]",6.95
7,"C[C@H]1Cn2ncc(N3CC(c4ccccc4C(=O)O)CC3=O)c2CN1C(=O)Nc1cc(F)c(F)c(F)c1 (stereo partly drawn) [Example 7, 2-[1-[(6S)-6-methyl-5-[(3,4,5-trifluorophenyl)carbamoyl]-6,7-dihydro-4H-pyrazolo[1,5-a]pyrazin-3-yl]-5-oxo-pyrrolidin-3-yl]benzoic acid]",7.66
8,"C[C@H]1Cn2ncc(N3CC(c4cccc(C(=O)O)c4)CC3=O)c2CN1C(=O)Nc1cc(F)c(F)c(F)c1 (stereo partly drawn) [Example 8, 3-[1-[(6S)-6-methyl-5-[(3,4,5-trifluorophenyl)carbamoyl]-6,7-dihydro-4H-pyrazolo[1,5-a]pyrazin-3-yl]-5-oxo-pyrrolidin-3-yl]benzoic acid]",7.05
9,"C[C@H]1Cn2ncc(N3CC(N4CCC[C@@H]4C(=O)O)CC3=O)c2CN1C(=O)Nc1cc(F)c(F)c(F)c1 (stereo partly drawn) [Example 9, (2R)-1-[1-[(6S)-6-methyl-5-[(3,4,5-trifluorophenyl)carbamoyl]-6,7-dihydro-4H-pyrazolo[1,5-a]pyrazin-3-yl]-5-oxo-pyrrolidin-3-yl]pyrrolidine-2-carboxylic acid]",6.91
10,"C[C@H]1Cn2ncc(N3CC(Nc4ccccc4C(=O)O)CC3=O)c2CN1C(=O)Nc1cc(F)c(F)c(F)c1 (stereo partly drawn) [Example 12, 2-[[1-[(6S)-6-methyl-5-[(3,4,5-trifluorophenyl)carbamoyl]-6,7-dihydro-4H-pyrazolo[1,5-a]pyrazin-3-yl]-5-oxo-pyrrolidin-3-yl]amino]benzoic acid]",6.54
11,"C[C@H]1Cn2ncc(N3CC4COCC(C3=O)N4CC(=O)O)c2CN1C(=O)Nc1cc(F)c(F)c(F)c1 (stereo partly drawn) [Example 13, 2-[7-[(6S)-6-methyl-5-[(3,4,5-trifluorophenyl)carbamoyl]-6,7-dihydro-4H-pyrazolo[1,5-a]pyrazin-3-yl]-6-oxo-3-oxa-7,9-diazabicyclo[3.3.1]nonan-9-yl]acetic acid]",7.00
12,"C[C@H]1Cn2ncc(N3CC(c4cc(F)ccc4C(=O)O)CC3=O)c2CN1C(=O)Nc1cc(F)c(F)c(F)c1 (stereo partly drawn) [Example 14, 4-Fluoro-2-[1-[(6S)-6-methyl-5-[(3,4,5-trifluorophenyl)carbamoyl]-6,7-dihydro-4H-pyrazolo[1,5-a]pyrazin-3-yl]-5-oxo-pyrrolidin-3-yl]benzoic acid]",7.52
13,"C[C@H]1Cn2ncc(N3CC(c4ccc(F)cc4C(=O)O)CC3=O)c2CN1C(=O)Nc1cc(F)c(F)c(F)c1 (stereo partly drawn) [Example 15, 5-Fluoro-2-[1-[(6S)-6-methyl-5-[(3,4,5-trifluorophenyl)carbamoyl]-6,7-dihydro-4H-pyrazolo[1,5-a]pyrazin-3-yl]-5-oxo-pyrrolidin-3-yl]benzoic acid]",7.24
14,"C[C@H]1Cn2ncc(N3CC(c4ccc(C(=O)O)cc4)CC3=O)c2CN1C(=O)Nc1cc(F)c(F)c(F)c1 (stereo partly drawn) [Example 16, 4-[1-[(6S)-6-methyl-5-[(3,4,5-trifluorophenyl)carbamoyl]-6,7-dihydro-4H-pyrazolo[1,5-a]pyrazin-3-yl]-5-oxo-pyrrolidin-3-yl]benzoic acid]",6.64
15,"C[C@H]1Cn2ncc(N3CC(c4ncccc4C(=O)O)CC3=O)c2CN1C(=O)Nc1cc(F)c(F)c(F)c1 (stereo partly drawn) [Example 18, 2-[1-[(6S)-6-methyl-5-[(3,4,5-trifluorophenyl)carbamoyl]-6,7-dihydro-4H-pyrazolo[1,5-a]pyrazin-3-yl]-5-oxo-pyrrolidin-3-yl]pyridine-3-carboxylic acid]",6.99

# Same assay, conditions: extracellular HBV DNA by qPCR, five days after compound treatment
row,SMILES,pEC50
1,"C[C@H]1Cn2ncc(N3CC(c4ccccc4C(=O)O)CC3=O)c2CN1C(=O)Nc1cc(F)c(F)c(F)c1 (single isomer, unassigned) [Example 7-1]",7.47
2,"C[C@H]1Cn2ncc(N3CC(c4ccccc4C(=O)O)CC3=O)c2CN1C(=O)Nc1cc(F)c(F)c(F)c1 (single isomer, unassigned) [Example 7-2]",7.85
3,"C[C@H]1Cn2ncc(N3CC(c4c(F)cccc4C(=O)O)CC3=O)c2CN1C(=O)Nc1cc(F)c(F)c(F)c1 (single isomer, unassigned) [Example 10-1]",6.97
4,"C[C@H]1Cn2ncc(N3CC(c4c(F)cccc4C(=O)O)CC3=O)c2CN1C(=O)Nc1cc(F)c(F)c(F)c1 (single isomer, unassigned) [Example 10-2]",7.77
5,"C[C@H]1Cn2ncc(N3CC(c4cccc(F)c4C(=O)O)CC3=O)c2CN1C(=O)Nc1cc(F)c(F)c(F)c1 (single isomer, unassigned) [Example 11-1]",6.51
6,"C[C@H]1Cn2ncc(N3CC(c4cccc(F)c4C(=O)O)CC3=O)c2CN1C(=O)Nc1cc(F)c(F)c(F)c1 (single isomer, unassigned) [Example 11-2]",7.11
7,"C[C@H]1[C@H](C)n2ncc(N3CC(N4CCC[C@H]4C(=O)O)CC3=O)c2CN1C(=O)Nc1cc(F)c(F)c(F)c1 (stereo partly drawn) [Example 6-2, (2S)-1-[1-[(6S,7S)-6,7-dimethyl-5-[(3,4,5-trifluorophenyl)carbamoyl]-6,7-dihydro-4H-pyrazolo[1,5-a]pyrazin-3-yl]-5-oxo-pyrrolidin-3-yl]pyrrolidine-2-carboxylic acid]",7.00
